In this test the test system is RTX-induced mouse ear edema. As to the kind of experiment: Resiniferatoxin (RTX)-induced mouse ear edema assay. The test is classed as in vivo. The following applies: systemic. The protocol: Various dilutions of test compounds were topically applied in acetone to the inside and outside surfaces of the left ears of mice in a solution comprising 0.1 μg RTX or 250 μg CAP per ear. A control, acetone, was applied to all right ears. After a 30 minute incubation, the mice were sacrificed, the ears removed, and bores taken and weighed.
For systemic studies, the test compounds were administered by intraperitoneal injection in a vehicle comprising 20% propylene glycol, 80% saline and 3 drops TWEEN-20 30 minutes or 1 hour prior to topical application of RTX or CAP. Control animals were injected with vehicle only. 0.1 μg RTX or 250 μg CAP was applied to the left ears and acetone was applied to the right ears. After 30 minutes of incubation, the mice were scarified, ears removed and bores taken and weighed.
Edema was measured by subtracting the weight of the right ear (control) from the weight of the left ear. The results were recorded as % decrease (inhibition) or % increase (potentiation) in edema relative to the control group edema.

Turning to scytonemin, the “inhibition of topical RTX-induced mouse ear edema” value by setting is: (25 mg/kg) 15%; (50 mg/kg) 18%; (150 mg/kg) 47%.
